The values that follow come from patent publication US20050228041A1, “Protective and therapeutic uses for tocotrienols” (priority 2003, published 2005).

SMILES strings stand for the structures.

Assay [1] addresses T1, Purified 12-lipoxygenase (porcine leukocyte) (Sus scrofa, UniProt P16469).
T1 construct: purchased Biomol Research labs Inc, Plymouth Meeting, Pa
T1 sequence (P16469 1-663): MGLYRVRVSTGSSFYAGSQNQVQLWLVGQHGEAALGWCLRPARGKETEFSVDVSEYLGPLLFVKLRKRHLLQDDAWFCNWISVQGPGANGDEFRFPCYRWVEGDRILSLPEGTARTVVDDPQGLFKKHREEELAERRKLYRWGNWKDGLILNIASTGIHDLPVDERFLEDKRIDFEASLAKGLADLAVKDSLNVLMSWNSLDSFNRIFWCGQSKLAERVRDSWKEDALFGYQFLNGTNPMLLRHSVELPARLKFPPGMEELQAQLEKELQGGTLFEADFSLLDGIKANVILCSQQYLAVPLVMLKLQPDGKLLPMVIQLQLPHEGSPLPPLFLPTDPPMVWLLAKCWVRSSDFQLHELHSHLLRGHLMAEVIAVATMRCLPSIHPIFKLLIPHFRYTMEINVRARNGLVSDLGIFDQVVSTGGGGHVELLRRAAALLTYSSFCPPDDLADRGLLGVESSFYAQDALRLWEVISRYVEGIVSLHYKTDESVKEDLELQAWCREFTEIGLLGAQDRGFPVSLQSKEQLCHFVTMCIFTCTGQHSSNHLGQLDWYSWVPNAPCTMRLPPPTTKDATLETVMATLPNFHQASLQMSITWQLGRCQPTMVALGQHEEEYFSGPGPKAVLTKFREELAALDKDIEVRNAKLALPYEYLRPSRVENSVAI
The assay can be described thus: Pure 12-lipoxygenase activity with [14C]-arachidonic acid (thin layer chromatography). Type of assay: biochemical. The conditions noted are these: 10 units enzyme, [14C]-arachidonic acid 25 μM, 30 min, 37° C. The procedure: Referring to FIG. 6, HT4 cells were subjected to glutamate treatment for 2 h. […] Purified 12-lipoxygenase (porcine leukocyte; 10 units) was incubated with [^14C]-arachidonic acid (25 μM) for 30 min at 37° C. Arachidonic acid and 12-HETE were resolved using thin layer chromatography as described in Materials & Methods We observed that in HT4 cells, treatment with glutamate mobilized cytosolic 12-LOX protein to the cell membrane (FIGS. 6A&B).
12-Lipoxygenase activity. To investigate whether tocotrienol directly affect the activity of 12-LOX (12-LOX), 10 units of 12-LOX (Biomol Research labs Inc, Plymouth Meeting, Pa.) was incubated at room temperature for 15 min with or without tocotrienol as indicated in the respective figure legend. The reaction mixture contained 50 mM Tris HCl, pH 7.4 and 1 mM EDTA. After 15 min, the reaction was initiated by adding 25 μM [1-^14C]-arachidonic acid per sample. Samples were kept at 37° C. for 30 minutes. The reaction was terminated by adding 200 μl of ice-cold stop solution containing diethyl ether, methanol and 1 M citric acid at a ratio of 30:4:1 by volume. After mixing, samples were centrifuged and the ethereal extracts were spotted on a silica gel thin layer plate. […] Distribution of radioactivity of the substrate and products on the plate were quantified using a imaging analyzer.

The next assay relates to HT4 neurons. The experiment in a line: Glutamate-induced death of HT4 neurons (propidium iodide exclusion flow cytometry, cell counts). Type of assay: cell-based, mouse. The procedure:
Referring to FIG. 1, primary rat immature cortical neurons (A-C) or HT4 (D) were either treated or not with α-tocotrienol (as indicated) for 5 min and challenged with either glutamate (10 mM; A); L-homocysteic acid (1 mM; B); or buthionine sulfoximine (0.15 mM; BSO) for 24 h. […] Cells were counted at 12, 24 and 36 h after glutamate challenge.
First, we tested for the involvement of 12-LOX in the execution of glutamate-induced death in our model. We started by using the 12-LOX specific inhibitor baicalein or BL15. Referring to FIG. 3, HT4 neurons (A) were either treated or not with a-tocotrienol (250 nM) or […] (2.5 μM, 12-lipoxygenase inhibitor) for 5 min and then challenged with glutamate (10 mM). Cell viability was determined using propidium iodide (PI) exclusion flow cytometry assay. PI−=live; PI+=dead. Rat primary immature cortical neurons (B-D) were either treated or not with α-tocotrienol (100 nM) or BL15 (2.5 μM) for 5 min and challenged either with glutamate (10 mM; B); L-homocysteic acid (1 mM; C) or buthionine sulfoximine (0.15 mM; BSO; D) for 24 h. Arachidonic acid, 50 μM for 24h. BL15, Baicalein 5,6,7-trihydroxy-flavone.
Cell culture. Mouse hippocampal HT4 cells, were grown in Dulbecco's Modified Eagle Medium supplemented with 10% fetal calf serum, penicillin (100 U/ml) and streptomycin (100 μg/ml) at 37° C. in a humidified atmosphere containing 95% air and 5% CO2. HT4 cells were provided by Dr. D. E. Koshland Jr. (University of California at Berkeley) (Sen et al., 2000). Primary cortical neurons. Cells were isolated from the cerebral cortex of rat feti (Sprague Dawley; day 17 of gestation) or mouse feti (C57BL/6 mice, day 14 of gestation) as described (Murphy et al., 1990). For 12-LOX knockout studies, neurons were isolated from the feti of B6.129S2-Alox15^tm1Fun (Jackson Laboratory, […].). After isolation from the brain, cells were counted and seeded in culture plates at a density of 2-3×10^6 cells per 35 mm plate (Murphy et al., 1990). Cells were grown in Minimal Essential Medium (MEM) supplemented with 10% heat-inactivated fetal bovine serum, 40 μM cystine and antibiotics (100 μg/ml streptomycin, 100 units/ml penicillin, 0.25 μg/ml amphotericin). Cultures were maintained at 37° C. in 5% CO2 and 95% air in a humidified incubator. All experiments were carried out 24 h after plating.
Treatment with neurotoxic agents. Immediately before experiments, culture media was replaced with fresh medium supplemented with serum and antibiotics. Glutamate (10 mM) was added to the media as aqueous solution (Han et al., 1997a; Sen et al., 2000; Tirosh et al., 2000). […] Other agents used to induce death in neuronal cells have been described in the pertinent figure legends.
Vitamin E treatment. Stock solutions (10^3X of working concentration) of α-tocotrienol was prepared in ethanol. […]
Determination of cell viability. Viability of HT4 cells was determined using propidium iodide exclusion assay using the flow cytometer as described by us previously (Sen et al., 2000; Tirosh et al., 2000). Because primary neuronal cultures tend to aggregate during flow cytometry, the viability of these cells was assessed by measuring lactate dehydrogenase (LDH) leakage (Han et al., 1997a) from cells to media 24 h following glutamate treatment using in vitro toxicology assay kit from Sigma Chemical Co. (St. Louis, Mo., USA). […]
For orientation: Flow cytometry measures light scatter and fluorescence of single cells or particles in a stream.

For the compound `CC(C)=CCC/C(C)=C/CC/C(C)=C/CC[C@]1(C)CCc2c(C)c(O)c(C)c(C)c2O1` [α-tocotrienol], the “inhibition of pure 12-lipoxygenase activity” value in assay [1] is listed as “dose-dependently inhibited”. Also, in the assay on HT4 neurons (glutamate 10 mM, tocotrienol 100 nM (nM levels) 5 min before), the “protection against glutamate-induced toxicity / loss of cell viability of HT4” value is on record as “protect against loss of cell viability”. Also, the “proliferation / growth rate of glutamate-treated HT4 cells” value in the assay on HT4 neurons (tocotrienol 100 nM (nM levels), cells counted 12, 24 and 36 h after glutamate) is “preserve the normal growth rate”.
